Reference: PubChem BioAssay AID248 (DTP/NCI, 2004)
“And” between values parts separate entries of the source, which are not always exact repeats. Equal values may be shown once. Inconclusive results and toxic doses are left out.

Tested on: L1210 leukemia ip in BDF1 mice, survival T/C
Assay: NCI In Vivo Anticancer Drug Screen. Data for tumor model L1210 Leukemia (intraperitoneal) in B6D2F1 (BDF1) mice
Details: endpoint: mean survival time, higher = longer survival
Summary of the method: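 Transplanted-tumor mice were given test agent; controls received vehicle only. Survival readings from the two groups were divided (treated over control).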

[1] = dose: 100.0 mg/kg/injection, schedule: Q01DX001 (ip), vehicle: saline
[2] = dose: 200.0 mg/kg/injection, schedule: Q01DX001 (ip), vehicle: saline
[3] = dose: 400.0 mg/kg/injection, schedule: Q01DX001 (ip), vehicle: saline
[4] = dose: 100.0 mg/kg/injection, schedule: Q04DX003 (ip), vehicle: saline with Tween-80
[5] = dose: 200.0 mg/kg/injection, schedule: Q04DX003 (ip), vehicle: saline with Tween-80
[6] = dose: 400.0 mg/kg/injection, schedule: Q04DX003 (ip), vehicle: saline with Tween-80
[7] = dose: 100.0 mg/kg/injection, schedule: Q01DX001 (ip), vehicle: carboxymethylcellulose (CMC)
[8] = dose: 200.0 mg/kg/injection, schedule: Q01DX001 (ip), vehicle: carboxymethylcellulose (CMC)

**Q.** COC(=O)c1ccc(N(C)CCC(=O)CN)cc1 was tested. Which T/C [1] did it give?
**A.** The T/C was 98 % of control.

**Q.** What about the T/C [2] of the same molecule?
**A.** The T/C was 101 % of control.

**Q.** And the T/C [3]?
**A.** Its T/C is 104 % of control.

**Q.** For Cc1ccc(C=C2c3ccccc3-c3ccccc32)cc1, which T/C (dose: 12.5 mg/kg/injection, schedule: Q04DX002 (ip), vehicle: gum acacia) is on record?
**A.** The T/C was 120 % of control.

**Q.** What about the T/C (dose: 25.0 mg/kg/injection, schedule: Q04DX002 (ip), vehicle: gum acacia) of the same molecule?
**A.** The T/C was 88 % of control.

**Q.** What about the T/C (dose: 50.0 mg/kg/injection, schedule: Q04DX002 (ip), vehicle: gum acacia) of the same molecule?
**A.** The T/C was 98 % of control.

**Q.** How did the T/C (dose: 50.0 mg/kg/injection, schedule: Q01DX001 (ip), vehicle: saline) turn out when COC1=C(Nc2ccc(C)cc2)C(=O)C(OC)=C(Nc2ccc(C)cc2)C1=O was run?
**A.** Its T/C is 98 % of control.

**Q.** And the T/C [1]?
**A.** The T/C was 93 % of control.

**Q.** What about the T/C [2] of the same molecule?
**A.** The T/C was 95 % of control.

**Q.** Which results are given for CCCCCCCC(=O)N1C(=O)CCC1C(=O)NCC(=O)NCC(=O)OCc1ccccc1 (stereo unspecified)?
**A.** T/C (dose: 100.0 mg/kg/injection, schedule: Q01DX001 (ip), vehicle: Klucel (hydroxypropylcellulose) (HPC)): 95 % of control; T/C (dose: 200.0 mg/kg/injection, schedule: Q01DX001 (ip), vehicle: Klucel (hydroxypropylcellulose) (HPC)): 98 % of control; T/C (dose: 400.0 mg/kg/injection, schedule: Q01DX001 (ip), vehicle: Klucel (hydroxypropylcellulose) (HPC)): 91 % of control

**Q.** O=C(CCl)Nc1ccc(S(=O)(=O)F)cc1 was tested. Which T/C (dose: 12.5 mg/kg/injection, schedule: Q01DX009 (ip), vehicle: carboxymethylcellulose (CMC)) did it give?
**A.** Its T/C is 93 % of control.

**Q.** What about the T/C (dose: 25.0 mg/kg/injection, schedule: Q01DX009 (ip), vehicle: carboxymethylcellulose (CMC)) of the same molecule?
**A.** Its T/C is 88 % of control.

**Q.** What about the T/C (dose: 50.0 mg/kg/injection, schedule: Q01DX009 (ip), vehicle: carboxymethylcellulose (CMC)) of the same molecule?
**A.** Its T/C is 88 % of control.

**Q.** And the T/C (dose: 100.0 mg/kg/injection, schedule: Q04DX003 (ip), vehicle: carboxymethylcellulose (CMC))?
**A.** The T/C was 96 % of control.

**Q.** Which T/C (dose: 75.0 mg/kg/injection, schedule: Q01DX001 (ip), vehicle: other) does the source give for CCOC(=O)/C(C#N)=C1\CCC=C(C)C1 here?
**A.** The T/C was 97 % of control.

**Q.** And the T/C (dose: 150.0 mg/kg/injection, schedule: Q01DX001 (ip), vehicle: other)?
**A.** The T/C was 102 % of control.

**Q.** What about the T/C (dose: 300.0 mg/kg/injection, schedule: Q01DX001 (ip), vehicle: other) of the same molecule?
**A.** Its T/C is 98 % of control.

**Q.** Which results are given for CC(C)(C)C1CCC(C(=O)c2ccccc2)CC1 (stereo unspecified)?
**A.** T/C [4]: 100 % of control; T/C [5]: 94 % of control; T/C [6]: 89 % of control

**Q.** How did the T/C [7] turn out when O=[N+]([O-])c1ccc2ccc3ccccc3c2c1 was run?
**A.** The T/C was 97 % of control.

**Q.** And the T/C [8]?
**A.** Its T/C is 95 % of control.

**Q.** What about the T/C (dose: 400.0 mg/kg/injection, schedule: Q01DX001 (ip), vehicle: carboxymethylcellulose (CMC)) of the same molecule?
**A.** Its T/C is 97 % of control.

**Q.** What does the source list for Nn1nnc(-c2ccccc2)c1-c1ccccc1?
**A.** T/C [7]: 100 % of control; T/C [8]: 100 % of control

**Q.** Which T/C (dose: 15.0 mg/kg/injection, schedule: Q01DX001 (ip), vehicle: carboxymethylcellulose (CMC)) does the source give for CC1C(c2ccccc2)N1P(I)(c1ccccc1)(c1ccccc1)c1ccccc1 (stereo unspecified) here?
**A.** The T/C was 116 % of control.

**Q.** How did the T/C [1] turn out when CC1(Cl)CCC(C(C)(C)Cl)CC1 (stereo unspecified) was run?
**A.** Its T/C is 101 % of control.

**Q.** What about the T/C [2] of the same molecule?
**A.** The T/C was 90 % of control.

**Q.** What about the T/C [3] of the same molecule?
**A.** Its T/C is 90 % of control.

**Q.** Which T/C (dose: 100.0 mg/kg/injection, schedule: Q04DX002 (ip), vehicle: Klucel (hydroxypropylcellulose) (HPC)) does the source give for CCCCCCCCCCCCCCCCCCNC(=O)Nc1ccc(C)c(Cl)c1 here?
**A.** The T/C was 90 % of control.

**Q.** What about the T/C (dose: 200.0 mg/kg/injection, schedule: Q04DX002 (ip), vehicle: Klucel (hydroxypropylcellulose) (HPC)) of the same molecule?
**A.** The T/C was 93 % of control.

**Q.** With N#CC12CCCCC(=O)N1C=Cc1ccccc12 (stereo unspecified) as the molecule, how does the T/C [1] read?
**A.** The T/C was 96 % of control.

**Q.** And the T/C [2]?
**A.** Its T/C is 96 % of control.

**Q.** And the T/C [3]?
**A.** The T/C was 93 % of control.

**Q.** CCn1c2ccccc2c2c(C)c3cnccc3c(C)c21 was tested. Which T/C (dose: 37.5 mg/kg/injection, schedule: Q04DX003 (ip), vehicle: saline) did it give?
**A.** Its T/C is 94 % of control.

**Q.** What about the T/C (dose: 62.5 mg/kg/injection, schedule: Q01DX009 (ip), vehicle: saline with Tween-80) of the same molecule?
**A.** Its T/C is 193 % of control.

**Q.** And the T/C (dose: 75.0 mg/kg/injection, schedule: Q04DX003 (ip), vehicle: saline)?
**A.** The T/C was 90 % of control.

**Q.** What about the T/C (dose: 125.0 mg/kg/injection, schedule: Q01DX009 (ip), vehicle: saline with Tween-80) of the same molecule?
**A.** Its T/C is 101 % of control.

**Q.** What about the T/C (dose: 150.0 mg/kg/injection, schedule: Q04DX003 (ip), vehicle: saline) of the same molecule?
**A.** The T/C was 92 % of control.

**Q.** What about the T/C (dose: 250.0 mg/kg/injection, schedule: Q01DX009 (ip), vehicle: saline with Tween-80) of the same molecule?
**A.** Its T/C is 105 % of control.

**Q.** And the T/C (dose: 300.0 mg/kg/injection, schedule: Q04DX003 (ip), vehicle: saline)?
**A.** Its T/C is 94 % of control.

**Q.** With OC1CCCC/C1=C/C=C/c1ccccc1 (stereo unspecified) as the molecule, how does the T/C [4] read?
**A.** Its T/C is 89 % of control and 97 % of control.

**Q.** What about the T/C [5] of the same molecule?
**A.** The T/C was 92 % of control.

**Q.** And the T/C [6]?
**A.** Its T/C is 90 % of control and 94 % of control.
